From ChEMBL document CHEMBL1126985, “Brush-border-enzyme-mediated intestine-specific drug delivery. Amino acid prodrugs of 5-aminosalicylic acid” (J Med Chem, 1993)
One block for each molecule: values may come before it.

How the values were obtained:
[1] = species: Rattus norvegicus; test: Urinary recovery in non-colostomized rats at 2 hr intervals for 48 h; assay type: functional, Urine
[2] = species: Rattus norvegicus; test: Fecal recovery in colostomized rats at 2 hr intervals for 48 h; assay type: functional
[3] = Half-life was determined by hydrolysis of compound in a solution of peptidases; assay type: ADME
[4] = species: Rattus norvegicus; test: Fecal recovery in non-colostomized rats at 2 hr intervals for 48 h; assay type: functional
[5] = species: Rattus norvegicus; test: Urinary recovery in colostomized rats at 2 hr intervals for 48 h; assay type: functional, Urine

- half-life [3]: 1.35 h
Structure (SMILES): N[C@@H](CCC(=O)[O-])C(=O)Nc1ccc(O)c(C(=O)[O-])c1.[Na+].[Na+]
- Urinary recovery [1]: 32.42%
- Fecal recovery [2]: 44.2%
- Fecal recovery [4]: 44.29%
- Urinary recovery [5]: 31.83%

Structure (SMILES): N[C@@H](CC(=O)[O-])C(=O)Nc1ccc(O)c(C(=O)[O-])c1.[Na+].[Na+]
- Urinary recovery [1]: 30.09%
- Fecal recovery [2]: 35.73%
- Fecal recovery [4]: 34.2%
- Urinary recovery [5]: 32.66%

Structure (SMILES): O=C(O)c1cc(/N=N/c2ccc(S(=O)(=O)Nc3ccccn3)cc2)ccc1O [SULFASALAZINE]
- Urinary recovery [1]: 32.21%
- Fecal recovery [2]: 37.77%
- Fecal recovery [4]: 38.9%
- Urinary recovery [5]: 33.34%

Structure (SMILES): Nc1ccc(O)c(C(=O)O)c1 [MESALAMINE]
- Urinary recovery [1]: 78.84%
- Fecal recovery [2]: 5.08%
- Fecal recovery [4]: 4.32%
- Urinary recovery [5]: 69.61%
